From the METLIN SMRT retention time set (Domingo-Almenara et al. 2019)

Assay: gradient 5% acetonitrile 3 min, to 50% in 2 min, to 85% in 15 min, held 3 min, 100 µL/min
Conditions: column: Zorbax Extend-C18 2.1 x 50 mm; eluents: water / acetonitrile, 0.1% formic acid
Procedure, shortened: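 Each retention time is based on an adduct peak selected computationally and verified by manual inspection. Measurements used HPLC–quadrupole time-of-flight mass spectrometry in positive and negative ionization mode on mixtures of ~100 pure standards. Chromatography ran on a Zorbax Extend-C18 column (2.1 × 50 mm, 1.8 μm) at 100 μL/min with water and acetonitrile, each containing 0.1% formic acid, and dead and dwell volumes of 40 μL and 900 μL.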

Work on `CCn1c(=O)c(=O)n(CC(=O)NCCc2ccco2)c2cccnc21` yielded an RP-LC retention time of 638 s.

In the case of `Cc1cccc(-n2c(=O)c3c(cc(C)n3C)n(CC(=O)Nc3ccc(Br)cc3F)c2=O)c1`, the RP-LC retention time is reported as 963 s.

With `Cc1ccc(-n2cc3c(c(C(=O)Nc4ccc(C)cn4)c2=O)CC(C)(C)CC3=O)cc1` the RP-LC retention time was 961 s.

Compound `CCOc1ccccc1CNc1nc2ccncc2n(CC)c1=O` has an RP-LC retention time of 683 s.

Work on `C/C=C1\NC(=O)[C@H]2CSSCC/C=C/[C@H](CC(=O)N[C@H](C(C)C)C(=O)N2)OC(=O)C(C(C)C)NC1=O` (some centres not stated) yielded an RP-LC retention time of 808 s.

`CCN(CC)S(=O)(=O)c1c[nH]c(=O)[nH]c1=O` showed an RP-LC retention time of 563 s.

Work on `COc1ccc(NC(=O)CSc2nnc3c4sc(N5CCCC5)nc4ncn23)cc1` yielded an RP-LC retention time of 754 s.

`Cc1cc(N2CCN(C(=O)c3cccc(F)c3)CC2)nc(N2CCCCC2)n1` showed an RP-LC retention time of 670 s.

In the case of `CCCCC(=O)Nc1nc(-c2ccc3c(c2)N(C)C(=O)CO3)cs1`, the RP-LC retention time is reported as 900 s.

`Cc1ccc(-n2c(N3CCCC(C(=O)NCc4ccccc4C)C3)nc3ccsc3c2=O)cc1` (configuration not stated) showed an RP-LC retention time of 954 s.

With `Cc1ccccc1C1CC(=O)c2c(C)nc(N3CCN(CCO)CC3)nc2C1` (configuration not stated) the RP-LC retention time was 656 s.

Compound `COc1ccc(NC(=O)Nc2cccn3c(C4CCC4)nnc23)cc1OC` has an RP-LC retention time of 718 s.

With `Cc1ccc(Sc2ccccc2N2CCNCC2)c(C)c1` the RP-LC retention time was 869 s.

Compound `CCn1cc(-c2nc(C(=O)Nc3cc(F)ccc3C)cs2)c2cccnc21` has an RP-LC retention time of 899 s.

For `CCOc1ccc(-c2noc(Cn3c(=O)n(CC(C)C)c(=O)c4ccccc43)n2)cc1`, the RP-LC retention time was 1210 s.

With `O=C(Nc1ccc(S(=O)(=O)N2CC3CC(C2)c2cccc(=O)n2C3)cc1)C1CC1` (configuration not stated) the RP-LC retention time was 631 s.

Work on `COc1ccc(C(=O)N2CCc3nc(-c4ccc(Cl)cc4)ncc3C2)cc1F` yielded an RP-LC retention time of 1050 s.

Work on `COc1ccc2cc(C(=O)N3CCN(c4cc(=O)n(C(C)C)c(=O)n4C(C)C)CC3)[nH]c2c1` yielded an RP-LC retention time of 909 s.

Compound `CCCN1CCN(C(=O)CN2C(=O)C(C)(C)c3cc(C)ccc32)CC1` has an RP-LC retention time of 624 s.

In the case of `Cc1cccc(N2CCN(CC(O)COc3ccccc3Cl)CC2)c1` (configuration not stated), the RP-LC retention time is reported as 828 s.

`O=C(NCCOc1ccccc1)c1ccccc1C(=O)c1ccccc1` showed an RP-LC retention time of 918 s.

Compound `CC(=O)N1CCOc2ccc(S(=O)(=O)N3CCCC3C(=O)Nc3nccs3)cc21` (configuration not stated) has an RP-LC retention time of 735 s.

`CNC(=O)NC1CCN(c2nc3cccnc3n(Cc3ccccc3)c2=O)CC1` gave an RP-LC retention time of 801 s.

Compound `O=C(CN1CCN(C(=O)Nc2ccc(Br)cc2)CC1=O)Nc1ccc(F)cc1F` has an RP-LC retention time of 1020 s.

With `CN1C(=O)c2cccnc2Sc2cc(NC(=O)c3c(F)cccc3F)ccc21` the RP-LC retention time was 754 s.

`Cc1cccc(NC(=O)N2CCC(n3cnc4c(Cl)cccc4c3=O)CC2)c1` gave an RP-LC retention time of 877 s.

Work on `Cc1ccc(Nc2c(-c3cc(Br)ccc3F)nc3ccc(C)cn23)cc1` yielded an RP-LC retention time of 812 s.

Compound `COc1ccc(-c2nc(-c3ccc4c(c3)nnn4CCN(C)C)no2)c(C)c1` has an RP-LC retention time of 700 s.

In the case of `CC(C)C(NC(=O)Cc1ccccc1F)C(=O)Nc1nc2ccccc2[nH]1` (configuration not stated), the RP-LC retention time is reported as 692 s.

With `CCCNC(=O)C1CCN(c2ccc(SCC(=O)Nc3ccc(OCC)cc3)nn2)CC1` the RP-LC retention time was 639 s.

Compound `CCc1ccc(CNC(=O)c2cn3c(n2)COCC3)cc1` has an RP-LC retention time of 710 s.

Compound `Cc1[nH]c(C(=O)Nc2ccc(F)cc2)c(C)c1S(=O)(=O)N1CCCC1` has an RP-LC retention time of 845 s.

Work on `Cc1ccc(CN2C(=O)COC[C@H]2C(=O)NC2CC2)cc1` yielded an RP-LC retention time of 658 s.

Compound `Cc1cc(N2CCN(S(=O)(=O)c3cc(F)ccc3C)CC2)nc(NC2CCCCC2)n1` has an RP-LC retention time of 864 s.

`CCn1cc(-c2ccc(F)cc2)cc1C(=O)N1CCOCC1` gave an RP-LC retention time of 869 s.

With `Cn1cc(CN2CCC(C(=O)NCCCN3CCc4ccccc4C3)CC2)c2cc(Cl)ccc21` the RP-LC retention time was 878 s.

`CCOc1ccc(-n2cc(C(=O)O)nn2)cc1` showed an RP-LC retention time of 686 s.
